Measured values as given in patent US10513521B2, “Compositions and methods for inhibiting BMP” (The Brigham and Women's Hospital, Inc., priority 2014, dated 2019).

Legend:
[1] = biological target: ALK1 (Homo sapiens, UniProt P37023); experiment: TR-FRET enzymatic ALK kinase assay, ALK1
Experimental: (§1) Briefly, the ALKs enzymatic assay was initiated by dispense 2.5 μl enzyme in 1× kinase reaction buffer. The assay plate was then added with compounds followed by incubation at room temperature for 10 minutes. Then 2.5 μl/well substrate was added.

[2] = biological target: T1, ALK4 (Homo sapiens, UniProt P36896); experiment: TR-FRET enzymatic ALK kinase assay, ALK4
T1 sequence (P36896 24-505): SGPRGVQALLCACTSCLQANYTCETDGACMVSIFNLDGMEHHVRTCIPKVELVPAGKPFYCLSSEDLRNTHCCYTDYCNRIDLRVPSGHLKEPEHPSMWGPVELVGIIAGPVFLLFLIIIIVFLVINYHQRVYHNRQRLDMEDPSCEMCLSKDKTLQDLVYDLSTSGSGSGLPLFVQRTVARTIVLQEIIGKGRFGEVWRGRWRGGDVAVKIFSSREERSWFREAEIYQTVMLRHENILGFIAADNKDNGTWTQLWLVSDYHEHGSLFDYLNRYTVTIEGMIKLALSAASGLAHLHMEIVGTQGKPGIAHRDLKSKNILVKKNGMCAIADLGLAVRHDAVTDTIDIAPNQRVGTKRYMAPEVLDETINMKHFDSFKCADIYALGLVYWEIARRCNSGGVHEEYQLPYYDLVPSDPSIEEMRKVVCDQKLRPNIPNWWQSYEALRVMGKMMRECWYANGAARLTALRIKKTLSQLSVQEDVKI
Experimental: as §1

[3] = biological target: T2, ALK2 (Homo sapiens, UniProt Q04771); experiment: TR-FRET enzymatic ALK kinase assay, ALK2
T2 sequence (Q04771 21-509): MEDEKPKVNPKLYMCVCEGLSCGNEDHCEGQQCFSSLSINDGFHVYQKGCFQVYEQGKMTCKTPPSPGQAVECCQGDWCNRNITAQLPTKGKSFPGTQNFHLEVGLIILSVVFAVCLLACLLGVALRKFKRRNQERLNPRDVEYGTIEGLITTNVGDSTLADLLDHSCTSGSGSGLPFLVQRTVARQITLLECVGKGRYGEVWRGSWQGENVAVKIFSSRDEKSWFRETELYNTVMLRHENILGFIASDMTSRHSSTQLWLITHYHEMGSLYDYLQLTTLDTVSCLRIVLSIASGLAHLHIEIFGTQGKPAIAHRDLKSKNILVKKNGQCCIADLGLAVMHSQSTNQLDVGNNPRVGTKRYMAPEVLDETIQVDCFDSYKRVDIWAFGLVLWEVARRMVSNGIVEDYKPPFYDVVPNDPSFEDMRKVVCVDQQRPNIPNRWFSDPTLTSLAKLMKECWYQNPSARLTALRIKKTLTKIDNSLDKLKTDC
Experimental: as §1

[4] = biological target: ALK3 (Homo sapiens, UniProt P36894); experiment: TR-FRET enzymatic ALK kinase assay, ALK3
Chain of ALK3 (P36894 24-532): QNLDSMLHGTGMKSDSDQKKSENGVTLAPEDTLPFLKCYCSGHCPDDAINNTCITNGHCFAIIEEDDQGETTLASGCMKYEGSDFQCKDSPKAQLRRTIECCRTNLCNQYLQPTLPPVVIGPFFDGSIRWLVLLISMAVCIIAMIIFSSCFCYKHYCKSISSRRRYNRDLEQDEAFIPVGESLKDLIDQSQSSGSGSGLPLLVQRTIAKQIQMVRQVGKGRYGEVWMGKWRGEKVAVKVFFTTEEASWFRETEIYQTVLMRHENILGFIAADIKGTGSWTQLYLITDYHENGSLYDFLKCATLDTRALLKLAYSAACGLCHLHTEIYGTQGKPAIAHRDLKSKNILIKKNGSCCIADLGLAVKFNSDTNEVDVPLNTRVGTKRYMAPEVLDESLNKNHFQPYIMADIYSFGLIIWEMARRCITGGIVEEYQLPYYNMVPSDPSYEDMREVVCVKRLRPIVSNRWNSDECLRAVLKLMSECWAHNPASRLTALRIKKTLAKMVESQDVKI
Experimental: as §1

[5] = biological target: T3, ALK5 (Homo sapiens, UniProt P36897); experiment: TR-FRET enzymatic ALK kinase assay, ALK5
T3 sequence (P36897 34-503): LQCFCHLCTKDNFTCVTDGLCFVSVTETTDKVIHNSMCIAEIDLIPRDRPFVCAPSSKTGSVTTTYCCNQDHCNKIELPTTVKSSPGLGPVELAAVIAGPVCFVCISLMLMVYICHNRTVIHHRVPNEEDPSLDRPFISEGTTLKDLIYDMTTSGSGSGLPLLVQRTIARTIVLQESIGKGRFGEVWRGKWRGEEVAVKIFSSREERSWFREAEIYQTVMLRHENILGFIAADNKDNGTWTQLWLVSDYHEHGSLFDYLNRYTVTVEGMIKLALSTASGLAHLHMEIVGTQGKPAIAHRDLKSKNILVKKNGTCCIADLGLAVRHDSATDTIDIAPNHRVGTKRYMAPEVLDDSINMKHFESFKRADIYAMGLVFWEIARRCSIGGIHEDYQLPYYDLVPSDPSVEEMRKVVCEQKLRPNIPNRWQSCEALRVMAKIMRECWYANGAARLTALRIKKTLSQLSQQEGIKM
Experimental: Six ALK kinase enzyme assays were developed for determination of compound activities on ALK1, ALK2, ALK3, ALK4, ALK5 and ALK6.
as §1

[6] = biological target: ALK6 (Homo sapiens, UniProt O00238); experiment: TR-FRET enzymatic ALK kinase assay, ALK6
Chain of ALK6 (O00238 14-502): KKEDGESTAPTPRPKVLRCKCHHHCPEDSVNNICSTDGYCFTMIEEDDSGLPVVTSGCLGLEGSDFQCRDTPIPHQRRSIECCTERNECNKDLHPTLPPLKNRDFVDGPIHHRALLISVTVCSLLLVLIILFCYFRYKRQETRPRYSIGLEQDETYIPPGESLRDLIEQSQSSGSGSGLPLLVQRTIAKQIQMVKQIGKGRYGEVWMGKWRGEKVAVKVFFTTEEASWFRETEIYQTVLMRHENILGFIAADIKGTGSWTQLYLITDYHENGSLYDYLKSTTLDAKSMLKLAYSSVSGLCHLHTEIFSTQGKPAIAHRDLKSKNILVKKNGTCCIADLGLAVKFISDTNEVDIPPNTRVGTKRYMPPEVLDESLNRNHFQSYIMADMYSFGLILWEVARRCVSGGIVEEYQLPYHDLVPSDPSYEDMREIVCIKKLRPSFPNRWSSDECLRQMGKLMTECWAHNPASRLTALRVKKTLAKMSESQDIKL
Experimental: as §1

Chain of ALK1 (P37023 22-503): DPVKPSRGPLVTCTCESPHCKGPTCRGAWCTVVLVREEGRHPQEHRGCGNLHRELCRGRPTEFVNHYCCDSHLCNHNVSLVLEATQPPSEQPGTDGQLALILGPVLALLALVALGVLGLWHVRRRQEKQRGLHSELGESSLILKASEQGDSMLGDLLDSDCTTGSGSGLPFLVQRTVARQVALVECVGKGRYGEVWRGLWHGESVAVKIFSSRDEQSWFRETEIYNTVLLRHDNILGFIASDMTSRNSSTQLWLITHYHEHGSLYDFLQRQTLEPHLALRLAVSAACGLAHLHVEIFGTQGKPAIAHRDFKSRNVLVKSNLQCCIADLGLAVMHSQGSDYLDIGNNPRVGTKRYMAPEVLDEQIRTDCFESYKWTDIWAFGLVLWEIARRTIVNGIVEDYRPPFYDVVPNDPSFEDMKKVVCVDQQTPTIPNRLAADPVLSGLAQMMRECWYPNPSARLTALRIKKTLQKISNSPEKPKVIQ

Row | Compound | IC50 [1] [µM] | IC50 [2] [µM] | IC50 [3] [µM] | IC50 [4] [µM] | IC50 [5] [µM] | IC50 [6] [µM]
1 | CC(O)c1cccc(-c2cnn3cc(-c4ccc(C5CCNC5)cc4)cnc23)c1 (stereo not drawn) [Compound 130, 1-(3-(6-(4-(pyrrolidin-3-yl)phenyl)pyrazolo[1,5-a]pyrimidin-3-yl)phenyl)ethanol] | 0.61 | > 10 | 0.13 | > 10 | > 10 | > 10
2 | CS(=O)(=O)c1cccc(-c2cnn3cc(-c4ccc(CCN5CCOCC5)cc4)cnc23)c1 [Compound 131, 4-(4-(3-(3-(methylsulfonyl)phenyl)pyrazolo[1,5-a]pyrimidin-6-yl)phenethyl)morpholine] | 0.76 | > 10 | 0.15 | 2.3 | > 10 | 5.1
3 | CS(=O)(=O)c1cccc(-c2cnn3cc(-c4ccc(CCN5CCC(O)C5)cc4)cnc23)c1 (stereo not drawn) [Compound 132, 1-(4-(3-(3-(methylsulfonyl)phenyl)pyrazolo[1,5-a]pyrimidin-6-yl)phenethyl)pyrrolidin-3-ol] | 0.63 | > 10 | 0.13 | 6.4 | > 10 | > 10
4 | CS(=O)(=O)c1cccc(-c2cnn3cc(-c4ccc(CCn5ccnc5)cc4)cnc23)c1 [Compound 133, 6-(4-(2-(1H-imidazol-1-yl)ethyl)phenyl)-3-(3-(methylsulfonyl)phenyl)pyrazolo[1,5-a]pyrimidine] | 0.67 | > 10 | 0.23 | > 10 | > 10 | > 10
5 | CC(O)c1cccc(-c2cnn3cc(-c4ccc(C5CCCCN5)cc4)cnc23)c1 (stereo not drawn) [Compound 135, 1-(3-(6-(4-(piperidin-2-yl)phenyl)pyrazolo[1,5-a]pyrimidin-3-yl)phenyl)ethanol] | 0.67 | > 10 | 0.15 | > 10 | > 10 | > 10
6 | CC(O)c1cccc(-c2cnn3cc(-c4ccc(C5CCCNC5)cc4)cnc23)c1 (stereo not drawn) [Compound 138, 1-(3-(6-(4-(piperidin-3-yl)phenyl)pyrazolo[1,5-a]pyrimidin-3-yl)phenyl)ethanol] | 0.58 | > 10 | 0.11 | 4.9 | > 10 | > 10
7 | CS(=O)(=O)c1cccc(-c2cnn3cc(-c4ccc(C5CCCNC5)cc4)cnc23)c1 (stereo not drawn) [Compound 139, 3-(3-(methylsulfonyl)phenyl)-6-(4-(piperidin-3-yl)phenyl)pyrazolo[1,5-a]pyrimidine] | 0.37 | > 10 | 0.089 | 4.8 | > 10 | > 10
8 | CS(=O)(=O)c1cccc(-c2cnn3cc(-c4ccc(CCN5CCC(O)CC5)cc4)cnc23)c1 [Compound 140, 1-(4-(3-(3-(methylsulfonyl)phenyl)pyrazolo[1,5-a]pyrimidin-6-yl)phenethyl)piperidin-4-ol] | 0.62 | > 10 | 0.14 | 7.6 | > 10 | > 10
9 | CS(=O)(=O)c1cccc(-c2cnn3cc(-c4ccc(CCN5CCCC(O)C5)cc4)cnc23)c1 (stereo not drawn) [Compound 141, 1-(4-(3-(3-(methylsulfonyl)phenyl)pyrazolo[1,5-a]pyrimidin-6-yl)phenethyl)piperidin-3-ol] | 0.75 | > 10 | 0.098 | 5.9 | > 10 | > 10
10 | CC(O)c1cccc(-c2cnn3cc(-c4ccc(OCCN5CCCCC5)cc4)cnc23)c1 (stereo not drawn) [Compound 142, 1-(3-(6-(4-(2-(piperidin-1-yl)ethoxy)phenyl)pyrazolo[1,5-a]pyrimidin-3-yl)phenyl)ethanol] | 0.56 | > 10 | 0.11 | 1.6 | > 10 | > 10
